Experimental data as given in PMC7156458, “Synthetic biology based construction of biological activity-related library of fungal decalin-containing diterpenoid pyrones” (Nature Communications, 2020).

Molecular target: Aβ42 (Homo sapiens, UniProt P05067)
Experiment: Th-T (thioflavin-T) assay of Aβ42 aggregation
Format: biochemical

Aβ42, sequence (P05067 672-713): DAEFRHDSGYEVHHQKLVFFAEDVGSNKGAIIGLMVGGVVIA

Compound: C=C1CCC2C(C)(CCC=C(C)C)C(O)CCC2(C)C1Cc1c(OC)oc(CO)c(C)c1=O (stereo not drawn) [Compound 12]
- Fig. 7a Th-T reading, mean of three wells (column suffix _20, reading M101): 2.081
- Fig. 7a Th-T reading, mean of three wells (column suffix _20, reading M102): 2.083
- Fig. 7a Th-T reading, mean of three wells (column suffix _20, reading M103): 2.082
- Fig. 7a Th-T reading, mean of three wells (column suffix _20, reading M104): 2.11
- Fig. 7a Th-T reading, mean of three wells (column suffix _20, reading M105): 2.097
- Fig. 7a Th-T reading, mean of three wells (column suffix _20, reading M106): 2.107
- Th-T fluorescence, mean of three wells (Fig. 7a) (column suffix _50, measurement M19): 1.719
- Th-T fluorescence, mean of three wells (Fig. 7a) (column suffix _50, measurement M20): 1.709
- Th-T fluorescence, mean of three wells (Fig. 7a) (column suffix _50, measurement M21): 1.707
- Th-T fluorescence, mean of three wells (Fig. 7a) (column suffix _50, measurement M22): 1.694
- Th-T fluorescence, mean of three wells (Fig. 7a) (column suffix _50, measurement M23): 1.672
- Th-T fluorescence, mean of three wells (Fig. 7a) (column suffix _50, measurement M24): 1.656
- Th-T fluorescence, mean of three wells (Fig. 7a) (column suffix _50, measurement M25): 1.634
- Th-T fluorescence, mean of three wells (Fig. 7a) (column suffix _50, measurement M26): 1.64
- Th-T fluorescence, mean of three wells (Fig. 7a) (column suffix _50, measurement M27): 1.6183
- Th-T fluorescence, mean of three wells (Fig. 7a) (column suffix _50, measurement M28): 1.623
- Th-T fluorescence, mean of three wells (Fig. 7a) (column suffix _50, measurement M29): 1.606
- Th-T assay signal, mean of three wells (Fig. 7a) (column suffix _50, reading M1): 1.526
- Th-T assay signal, mean of three wells (Fig. 7a) (column suffix _50, reading M2): 1.765
- Th-T assay signal, mean of three wells (Fig. 7a) (column suffix _50, reading M3): 2.409
- Th-T assay signal, mean of three wells (Fig. 7a) (column suffix _50, reading M4): 2.663
- Th-T assay signal, mean of three wells (Fig. 7a) (column suffix _50, reading M5): 2.734
- Th-T assay signal, mean of three wells (Fig. 7a) (column suffix _50, reading M6): 2.555
- Th-T assay signal, mean of three wells (Fig. 7a) (column suffix _50, reading M7): 2.454
- Th-T assay signal, mean of three wells (Fig. 7a) (column suffix _50, reading M8): 2.181
- Th-T assay signal, mean of three wells (Fig. 7a) (column suffix _50, reading M9): 2.034
- Th-T assay signal, mean of three wells (Fig. 7a) (column suffix _50, reading M10): 1.99
- Th-T assay signal, mean of three wells (Fig. 7a) (column suffix _50, reading M11): 1.977
- Th-T assay signal, mean of three wells (Fig. 7a) (column suffix _50, reading M12): 1.8801
- Th-T assay signal, mean of three wells (Fig. 7a) (column suffix _50, reading M13): 1.841
- Th-T assay signal, mean of three wells (Fig. 7a) (column suffix _50, reading M14): 1.819
- Th-T assay signal, mean of three wells (Fig. 7a) (column suffix _50, reading M15): 1.788
- Th-T assay signal, mean of three wells (Fig. 7a) (column suffix _50, reading M16): 1.774
- Th-T assay signal, mean of three wells (Fig. 7a) (column suffix _50, reading M17): 1.76
- Th-T assay signal, mean of three wells (Fig. 7a) (column suffix _50, reading M18): 1.746
- Fig. 7a Th-T reading, mean of three wells (column suffix _50, reading M85): 1.4
- Fig. 7a Th-T reading, mean of three wells (column suffix _50, reading M86): 1.399
- Fig. 7a Th-T reading, mean of three wells (column suffix _50, reading M87): 1.399
- Fig. 7a Th-T reading, mean of three wells (column suffix _50, reading M88): 1.392
- Fig. 7a Th-T reading, mean of three wells (column suffix _50, reading M89): 1.396
- Fig. 7a Th-T reading, mean of three wells (column suffix _50, reading M90): 1.401
- Fig. 7a Th-T reading, mean of three wells (column suffix _50, reading M91): 1.4
- Fig. 7a Th-T reading, mean of three wells (column suffix _50, reading M92): 1.405
- Fig. 7a Th-T reading, mean of three wells (column suffix _50, reading M93): 1.424
- Fig. 7a Th-T reading, mean of three wells (column suffix _50, reading M94): 1.4149
- Fig. 7a Th-T reading, mean of three wells (column suffix _50, reading M95): 1.419
- Fig. 7a Th-T reading, mean of three wells (column suffix _50, reading M96): 1.4015
- Fig. 7a Th-T reading, mean of three wells (column suffix _50, reading M97): 1.401
- Fig. 7a Th-T reading, mean of three wells (column suffix _50, reading M98): 1.397
- Fig. 7a Th-T reading, mean of three wells (column suffix _50, reading M99): 1.397
- Fig. 7a Th-T reading, mean of three wells (column suffix _50, reading M100): 1.41
- Fig. 7a Th-T reading, mean of three wells (column suffix _50, reading M101): 1.399
- Fig. 7a Th-T reading, mean of three wells (column suffix _50, reading M102): 1.3937
- Fig. 7a Th-T reading, mean of three wells (column suffix _50, reading M103): 1.417
- Fig. 7a Th-T reading, mean of three wells (column suffix _50, reading M104): 1.419
- Fig. 7a Th-T reading, mean of three wells (column suffix _50, reading M105): 1.42
- Fig. 7a Th-T reading, mean of three wells (column suffix _50, reading M106): 1.412
- Th-T fluorescence, mean of three wells (compound at 10, reading M41 of time course): 3.264
- Th-T fluorescence, mean of three wells (compound at 10, reading M42 of time course): 3.266
- Th-T fluorescence, mean of three wells (compound at 10, reading M43 of time course): 3.271
- Th-T fluorescence, mean of three wells (compound at 10, reading M44 of time course): 3.34
- Th-T fluorescence, mean of three wells (compound at 10, reading M45 of time course): 3.373
- Th-T fluorescence, mean of three wells (compound at 10, reading M46 of time course): 3.378
- Th-T fluorescence, mean of three wells (compound at 10, reading M47 of time course): 3.37
- Th-T fluorescence, mean of three wells (compound at 10, reading M48 of time course): 3.386
- Th-T fluorescence, mean of three wells (compound at 10, reading M49 of time course): 3.382
- Th-T fluorescence, mean of three wells (compound at 10, reading M50 of time course): 3.418
- Th-T fluorescence, mean of three wells (compound at 10, reading M51 of time course): 3.408
- Th-T fluorescence, mean of three wells (compound at 10, reading M52 of time course): 3.423
- Th-T fluorescence, mean of three wells (compound at 10, reading M53 of time course): 3.4353
- Th-T fluorescence, mean of three wells (compound at 10, reading M54 of time course): 3.443
- Th-T fluorescence, mean of three wells (compound at 10, reading M55 of time course): 3.439
- Th-T fluorescence, mean of three wells (compound at 10, reading M56 of time course): 3.46
- Th-T fluorescence, mean of three wells (compound at 10, reading M57 of time course): 3.454
- Th-T fluorescence, mean of three wells (compound at 10, reading M58 of time course): 3.457
- Th-T fluorescence, mean of three wells (compound at 10, reading M59 of time course): 3.451
- Th-T fluorescence, mean of three wells (compound at 10, reading M60 of time course): 3.452
- Th-T fluorescence, mean of three wells (compound at 10, reading M61 of time course): 3.431
- Th-T fluorescence, mean of three wells (compound at 10, reading M62 of time course): 3.428
- Th-T fluorescence, mean of three wells (compound at 20, reading M41 of time course): 2.229
- Th-T fluorescence, mean of three wells (compound at 20, reading M42 of time course): 2.216
- Th-T fluorescence, mean of three wells (compound at 20, reading M43 of time course): 2.22
- Th-T fluorescence, mean of three wells (compound at 20, reading M44 of time course): 2.199
- Th-T fluorescence, mean of three wells (compound at 20, reading M45 of time course): 2.1759
- Th-T fluorescence, mean of three wells (compound at 20, reading M46 of time course): 2.17
- Th-T fluorescence, mean of three wells (compound at 20, reading M47 of time course): 2.178
- Th-T fluorescence, mean of three wells (compound at 20, reading M48 of time course): 2.1654
- Th-T fluorescence, mean of three wells (compound at 20, reading M49 of time course): 2.1539
- Th-T fluorescence, mean of three wells (compound at 20, reading M50 of time course): 2.1392
- Th-T fluorescence, mean of three wells (compound at 20, reading M51 of time course): 2.1473
- Th-T fluorescence, mean of three wells (compound at 20, reading M52 of time course): 2.131
- Th-T fluorescence, mean of three wells (compound at 20, reading M53 of time course): 2.116
- Th-T fluorescence, mean of three wells (compound at 20, reading M54 of time course): 2.151
- Th-T fluorescence, mean of three wells (compound at 20, reading M55 of time course): 2.154
- Th-T fluorescence, mean of three wells (compound at 20, reading M56 of time course): 2.133
- Th-T fluorescence, mean of three wells (compound at 20, reading M57 of time course): 2.135
- Th-T fluorescence, mean of three wells (compound at 20, reading M58 of time course): 2.143
- Th-T fluorescence, mean of three wells (compound at 20, reading M59 of time course): 2.117
- Th-T fluorescence, mean of three wells (compound at 20, reading M60 of time course): 2.117
- Th-T fluorescence, mean of three wells (compound at 20, reading M61 of time course): 2.0819
- Th-T fluorescence, mean of three wells (compound at 20, reading M62 of time course): 2.098
- Th-T fluorescence, mean of three wells (compound at 50, reading M41 of time course): 1.5174
- Th-T fluorescence, mean of three wells (compound at 50, reading M42 of time course): 1.513
- Th-T fluorescence, mean of three wells (compound at 50, reading M43 of time course): 1.502
- Th-T fluorescence, mean of three wells (compound at 50, reading M44 of time course): 1.5
- Th-T fluorescence, mean of three wells (compound at 50, reading M45 of time course): 1.494
- Th-T fluorescence, mean of three wells (compound at 50, reading M46 of time course): 1.488
- Th-T fluorescence, mean of three wells (compound at 50, reading M47 of time course): 1.489
- Th-T fluorescence, mean of three wells (compound at 50, reading M48 of time course): 1.494
- Th-T fluorescence, mean of three wells (compound at 50, reading M49 of time course): 1.481
- Th-T fluorescence, mean of three wells (compound at 50, reading M50 of time course): 1.475
- Th-T fluorescence, mean of three wells (compound at 50, reading M51 of time course): 1.492
- Th-T fluorescence, mean of three wells (compound at 50, reading M52 of time course): 1.492
- Th-T fluorescence, mean of three wells (compound at 50, reading M53 of time course): 1.469
